# Results published in patent US7407645B2, “Bioconjugates of metal complexes of nitrogen-containing macrocyclic ligands” (Metaphore Pharmaceuticals, Inc., priority 1995, dated 2008).
# Test: Relaxivity R1 from proton relaxation times (T1), inversion-recovery, 20 MHz
# Assay type: physicochemical
# Set-up: unit not given here
# Conditions: 100 mM Hepes buffer, pH=7.4, 40° C., slope of 1/T1 versus concentration
# Procedure: Relaxivity measurements of the complex of Example 1 was determined.
# Proton relaxation times (T1) of the sample in 100 mM Hepes buffer, pH=7.4, at 40° C. were determined from a monoexponential curve fit obtained from inversion-recovery pulse sequences (180°-τ-90°) with a Bruker PC 120/125/10 VTs NMR process analyzer. The spectrometer was calibrated for each sample to assure accurate duration of 90° and 180° radio frequency pulses and appropriate magnetic field strength to match the 20 MHz system operating frequency. The relaxivity (R1) was obtained from the slope of a plot of 1/T1 versus the concentration of paramagnetic compound.
substance,measurement,value
"[Manganese (II) dichloro 2,3-(R,R)-Cyclohexano-6-(S)-{3-(lithocholylamino)-propyl}-1,4,7,10,13-penta-azacclopentadecane] [Example 1]",relaxivity R1,6.09
